Here are results for one compound from ChEMBL document CHEMBL4145469, “Part II: New candidates of pyrazole-benzimidazole conjugates as checkpoint kinase 2 (Chk2) inhibitors” (Eur J Med Chem, 2018).

The nature of the data set: Toxicity in Sprague-Dawley rat assessed as mortality administered as po single dose measured up to 1 month post dose. The class given is organism-based. Particulars: in vivo.

Take `Cc1nn(-c2ccccc2)c(Oc2ccc(-c3nc4cc([N+](=O)[O-])ccc4[nH]3)cc2)c1/C=N/NC(N)=O`: the LD50 – broadly, the dose expected to kill half of the subjects tested – at 1 month turned out to be 500 mg/kg.
